Results: patent US8591880B2, “Gut flora and weight management” (priority 2007, dated 2013)
Like-named read-outs stand apart in the source and are kept apart here.

What was measured:
Assay type in all cases: cell-based
Bifidobacteria = assay: In vitro antibiotic susceptibility strip test, Bifidobacteria; details: colonies from feces of ob/ob mice; for Susceptibility class, Bifidobacteria: MRS/cystein agar, strip test; for Count in brackets, Bifidobacteria: fraction given, not defined
Bacteroides = assay: In vitro antibiotic susceptibility strip test, Bacteroides; details: for Count in brackets, Bacteroides: fraction given, not defined
Enterobacteria = assay: In vitro antibiotic susceptibility strip test, Enterobacteria; details: for Susceptibility class, Enterobacteria / Count in brackets, Enterobacteria: colonies from feces of ob/ob mice; for Susceptibility class, Enterobacteria: Mueller Hinton agar, strip test; for Count in brackets, Enterobacteria: fraction given, not defined; for Growth / susceptibility of fecal enterobacteria, in words: summary of Table 1
Lactobacillus = assay: In vitro antibiotic susceptibility strip test, Lactobacillus; details: colonies from feces of ob/ob mice; for Susceptibility class, Lactobacillus: MRS/cystein agar, strip test; for Count in brackets, Lactobacillus: fraction given, not defined
[1] = colonies from feces of ob/ob mice, Brucella agar, strip test
[2] = colonies from feces of ob/ob mice

CC1(C)S[C@@H]2[C@H](NC(=O)[C@H](N)c3ccccc3)C(=O)N2[C@H]1C(=O)O [Ampicillin, ampicillin]
Susceptibility class, Bifidobacteria (Bifidobacteria): S | Count in brackets, Bifidobacteria (Bifidobacteria): 3/3 | Susceptibility class, Bacteroides (Bacteroides; [1]): S | Count in brackets, Bacteroides (Bacteroides; [2]): 16/16 | Susceptibility class, Enterobacteria (Enterobacteria): S/R | Count in brackets, Enterobacteria (Enterobacteria): 13/19 | Growth / susceptibility of fecal enterobacteria, in words (Enterobacteria): only partially sensitive | Susceptibility class, Lactobacillus (Lactobacillus): S | Count in brackets, Lactobacillus (Lactobacillus): 33/33

CC1(C)S[C@@H]2[C@H](NC(=O)[C@H](N)c3ccc(O)cc3)C(=O)N2[C@H]1C(=O)O [Amoxicillin, amoxicillin]
Susceptibility class, Bifidobacteria (Bifidobacteria): S | Count in brackets, Bifidobacteria (Bifidobacteria): 3/3 | Susceptibility class, Bacteroides (Bacteroides): S/R (14/16) | Count in brackets, Bacteroides (Bacteroides; [2]): S/R (14/16) | Susceptibility class, Enterobacteria (Enterobacteria): R | Count in brackets, Enterobacteria (Enterobacteria): 0/19 | Growth / susceptibility of fecal enterobacteria, in words (Enterobacteria): resistant | Susceptibility class, Lactobacillus (Lactobacillus): S | Count in brackets, Lactobacillus (Lactobacillus): 33/33

CCn1cc(C(=O)O)c(=O)c2cc(F)c(N3CCNCC3)cc21 [Norfloxacin, norfloxacin]
Susceptibility class, Bifidobacteria (Bifidobacteria): R | Count in brackets, Bifidobacteria (Bifidobacteria): 0/3 | Susceptibility class, Bacteroides (Bacteroides; [1]): R | Count in brackets, Bacteroides (Bacteroides; [2]): 0/16 | Susceptibility class, Enterobacteria (Enterobacteria): S | Count in brackets, Enterobacteria (Enterobacteria): 19/19 | Growth / susceptibility of fecal enterobacteria, in words (Enterobacteria): capable of suppressing the growth | Susceptibility class, Lactobacillus (Lactobacillus): S/R | Count in brackets, Lactobacillus (Lactobacillus): 25/33
